From PMC6017605, “In Silico Discovery of a Substituted 6-Methoxy-quinaldine with Leishmanicidal Activity in Leishmania infantum” (Molecules, 2018) come the findings set out here.

The test concerns the target T1, NDH-2 from S. aureus (SaNDH2, type 2 NADH:quinone oxidoreductase) (Staphylococcus aureus, UniProt Q2FZV7).
T1 construct: gene SAOUHSC_00878; recombinant NDH-2
The test is described as follows: steady-state NADH oxidation assay at […] nm with DMN as electron acceptor, […] enzyme. The class given is biochemical.

As a reminder, the Ki is a measure of affinity in units of concentration, obtained from inhibition or displacement. Low values mean a stronger hold on the target, high ones a looser hold on the target.

T1 sequence (Q2FZV7 whole entry): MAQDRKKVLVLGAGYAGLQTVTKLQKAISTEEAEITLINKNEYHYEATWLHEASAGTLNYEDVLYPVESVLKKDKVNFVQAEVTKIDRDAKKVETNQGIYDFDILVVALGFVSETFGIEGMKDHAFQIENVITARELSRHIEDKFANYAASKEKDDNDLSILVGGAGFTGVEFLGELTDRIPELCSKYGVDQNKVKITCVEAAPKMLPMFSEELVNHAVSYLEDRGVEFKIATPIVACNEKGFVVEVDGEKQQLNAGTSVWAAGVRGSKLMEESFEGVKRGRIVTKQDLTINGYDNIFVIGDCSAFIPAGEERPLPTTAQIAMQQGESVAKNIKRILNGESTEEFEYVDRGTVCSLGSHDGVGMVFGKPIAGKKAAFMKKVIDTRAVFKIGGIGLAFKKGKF

Regarding `COc1ccc2nc(C)ccc2c1` [compound 15], the Ki worked out at 8.9 ± 1 µM.
